Measurements as given in US20250059196A1 (SHANGHAI HANSOH BIOMEDICAL CO., LTD., priority 2021, published 2025).

What was measured:
[1] = test system: OCI-LY3 cell subcutaneous xenograft tumor; assay: Tumor inhibition in OCI-LY3 subcutaneous xenograft NOG mouse model of human diffuse large B-cell lymphoma; format: in vivo; conditions: NOG mice, 30 mg, BID × 4 weeks, oral; for Weight Day 28: in g (unit assumed); for Tumor volume (Mean ± SD) Day 28: vehicle group 1274 ± 82
Experimental: The efficacy of test drugs was evaluated in OCI-LY3 mouse subcutaneous tumor model of human diffuse large B-cell lymphoma
• 1. Animal: NOG mice, female, 6-8 weeks old, weighing 18-22 grams, a total of 65 mice were needed. Provided by Beijing Vital River Laboratory Animal Technology Co., Ltd. or other qualified suppliers. • 2. Cell: Human diffuse large B-cell lymphoma OCI-LY3 cells were cultured in vitro as monolayers and conventional digestion treatment with trypsin-EDTA was carried out twice a week for passage. When the cell confluence was 80%-90% and the number reached the required number, cells were collected, counted, and inoculated. • 3. Grouping for vaccination: Cells (5×10^6 cells+Matrigel/0.2 ml) were inoculated subcutaneously into each mouse. The growth of animals and transplanted tumors were observed regularly. When the tumor grew to a volume of about 150-200 mm^3, the tumor volume of each mouse was calculated, and the mice were divided into random groups according to tumor volume and body weight. The calculation formula of tumor volume was V=0.5a×b^2, wherein a and b represented the long and short diameters of the tumor, respectively. • 4. Administration: According to the grouping results, the test drug was started to be administered (administration method: oral administration; Administration volume: 10 mL/kg; Administration frequency: 2 times/day; Administration cycle: 28 days; Vehicle: 10% solutol HS15-0.25% CMC-Na). Tumors were measured and weighed twice a week after starting administration of test drugs. • 5. Animals were euthanized after the experiment. • 6. Data processing: The tumor inhibitory efficacy of the compound was evaluated by TGI (%) or relative tumor proliferation rate T/C (%). TGI (%) reflects the tumor growth inhibition rate. Calculation of TGI (%): TGI (%)=[(1−(average tumor volume at the end of administration in a treatment group−average tumor volume at the beginning of administration in the treatment group))/(average tumor volume at the end of administration in the solvent control group−average tumor volume at the beginning of administration in the solvent control group)]×100%.
Relative tumor proliferation rate T/C (%): The calculation formulas are as follows: T/C %=TRTV/CRTV×100% (TRTV: RTV of treatment group; CRTV: RTV of negative control group). The relative tumor volume (RTV) was calculated based on the results of tumor measurement. The calculation formula is RTV=Vt/V0, where V0 is the average tumor volume measured at grouping for administration (i.e. d0), Vt is the average tumor volume at a certain measurement, and TRTV and CRTV take the data on the same day.
After the experiment, the tumor weight was measured, and the T/Cweight percentage was calculated. Tweight and Cweight represented the tumor weight of the administration group and the vehicle control group, respectively.
Remarks: The data in parentheses indicate the tumor volume corresponding to the vehicle group (i.e., the control group) at the corresponding time in this example.

[2] = test system: OCI-Ly3 cells; assay: Inhibition of proliferation of OCI-Ly3 cells (CellTiter-Glo); format: cell-based, human; conditions: Homo sapiens, 96 h incubation, read-out: Inhibition test of proliferation of OCI-Ly3 cells IC50
Outline: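 OCI-Ly3 cells were plated and dosed the next day with 9 concentrations in 3-fold dilutions from 1000 nM to 0.15 nM. Cells were incubated 96 h, and viability was read by CellTiter-Glo luminescence. IC50 was fitted by four-parameter variable-slope log(inhibitor)-response regression.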

[3] = Pharmacokinetics of oral administration in Balb/C mice; format: in vivo; conditions: male, mouse, po, 30 mg/kg, P.O., plasma; for AUC(0-t): read-out: AUC 0-t; for Cmax: read-out: Cmax; for MRT: read-out: MRT; for Tmax: read-out: Tmax
Outline: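 Male Balb/C mice (n=3), fasted overnight, dosed orally at 30 mg/kg. Orbital plasma sampled at 0, 0.5, 1, 2, 4, 6, 8 and 24 h, acetonitrile-precipitated, and analysed by LC/MS/MS (C18, formic acid/acetonitrile); PK parameters by non-compartmental-style software analysis.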

Weight Day 28 [1] | IC50 [2] | AUC(0-inf) [3] | half-life [3] | AUC(0-t) [3] | Cmax [3] | MRT [3] | Tmax [3] | Structure (SMILES) | TGI (%) Day 28 [1] | ΔT/ΔC(%) Day 28 [1] | Tumor volume (Mean ± SD) Day 28 [1]
21.03 ± 0.42 | 88 nM | 222 µg·h/mL | 1.9 h | 222 µg·h/mL | 22900 ng/mL | 5.4 h | 2 h | O=C(Nc1cnc(-n2nccn2)c(C(F)(F)F)c1)c1cnn(-c2ccc3c4c(cccc24)C(=O)N3)c1C(F)(F)F [Example 18, N-(6-(2H-1,2,3-triazol-2-yl)-5-trifluoromethylpyridin-3-yl)-1-(2-oxo-1,2-dihydrobenzo[cd]indol-6-yl)-5-trifluoromethyl-1H-pyrazole-4-carboxamide] | 62.73% | 43.82% | 635 ± 46 (1274 ± 82) mm^3
20.06 ± 1.08 | 101 nM |  |  | 256 µg·h/mL | 14100 ng/mL |  | 8 h | O=C(Nc1ccc(-n2nccn2)c(Cl)c1)c1cnn(-c2ccc3c4c(cccc24)C(=O)N3)c1C(F)(F)F [Example 53, N-(3-chloro-4-(2H-1,2,3-triazol-2-yl)phenyl)-1-(2-oxo-1,2-dihydrobenzo[cd]indol-6-yl)-5-(trifluoromethyl)-1H-pyrazole-4-carboxamide] | 67.23% | 41.76% | 519 ± 89 (1274 ± 82) mm^3
21.15 ± 0.72 | 211 nM | 472 µg·h/mL | 8.6 h | 401 µg·h/mL | 28300 ng/mL | 12.2 h | 4 h | O=C(Nc1ccnc(C(F)(F)F)c1)c1cnn(-c2ccc3c4c(cccc24)C(=O)N3)c1C1CC1 [Example 55, 5-cyclopropyl-1-(2-oxo-1,2-dihydrobenzo[cd]indol-6-yl)-N-(2-(trifluoromethyl)pyridin-4-yl)-1H-pyrazole-4-carboxamide] | 87.99% | 22.76% | 287 ± 25 (1274 ± 82) mm^3
